From PubChem BioAssay AID330 (DTP/NCI, 2004)
Several values for one entry are separate records, joined by “and”; a condition that tells them apart may be missing. Equal entries are not always repeated. Toxic doses and inconclusive results are not listed. The calls were made as follows: active = survival T/C of 150% or more; inactive = T/C below 125% in these data.

Test system: P388 leukemia ip, CD2F1 mice, survival T/C
Assay: NCI In Vivo Anticancer Drug Screen. Data for tumor model P388 Leukemia (intraperitoneal) in CD2F1 (CDF1) mice
Conditions: endpoint: median survival time, higher = longer survival
Procedure, shortened: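 Mice carrying the transplanted tumor received test compound or vehicle. Survival was recorded in each group, and the value is the treated-group measurement divided by that of the vehicle-treated control group.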

[1] = dose: 50.0 mg/kg/injection, schedule: Q01DX009 (ip), vehicle: Klucel (hydroxypropylcellulose) (HPC)
[2] = dose: 100.0 mg/kg/injection, schedule: Q01DX009 (ip), vehicle: Klucel (hydroxypropylcellulose) (HPC)
[3] = dose: 200.0 mg/kg/injection, schedule: Q01DX009 (ip), vehicle: Klucel (hydroxypropylcellulose) (HPC)
[4] = dose: 12.5 mg/kg/injection, schedule: Q01DX009 (ip), vehicle: saline
[5] = dose: 50.0 mg/kg/injection, schedule: Q01DX009 (ip), vehicle: saline
[6] = dose: 100.0 mg/kg/injection, schedule: Q01DX001 (ip), vehicle: saline with Tween-80
[7] = dose: 25.0 mg/kg/injection, schedule: Q01DX005 (ip), vehicle: Klucel (hydroxypropylcellulose) (HPC)
[8] = dose: 50.0 mg/kg/injection, schedule: Q01DX005 (ip), vehicle: Klucel (hydroxypropylcellulose) (HPC)
[9] = dose: 100.0 mg/kg/injection, schedule: Q01DX005 (ip), vehicle: Klucel (hydroxypropylcellulose) (HPC)
[10] = dose: 60.0 mg/kg/injection, schedule: Q01DX005 (ip), vehicle: saline with Tween-80
[11] = dose: 120.0 mg/kg/injection, schedule: Q01DX005 (ip), vehicle: saline with Tween-80
[12] = dose: 100.0 mg/kg/injection, schedule: Q01DX009 (ip), vehicle: saline
[13] = dose: 200.0 mg/kg/injection, schedule: Q01DX009 (ip), vehicle: saline
[14] = dose: 240.0 mg/kg/injection, schedule: Q01DX005 (ip), vehicle: saline with Tween-80
[15] = dose: 50.0 mg/kg/injection, schedule: Q01DX005 (ip), vehicle: saline with Tween-80
[16] = dose: 100.0 mg/kg/injection, schedule: Q01DX005 (ip), vehicle: saline with Tween-80
[17] = dose: 200.0 mg/kg/injection, schedule: Q01DX005 (ip), vehicle: saline with Tween-80
[18] = dose: 100.0 mg/kg/injection, schedule: Q04DX003 (ip), vehicle: saline with Tween-80
[19] = dose: 200.0 mg/kg/injection, schedule: Q04DX003 (ip), vehicle: saline with Tween-80

Measured: T/C

CSc1nnc2sc3cc(C)ccc3n12
inactive: [1] 102 % of control | [2] 103 % of control | [3] 102 % of control

COc1ccc(Cc2nccc3cc(OC)c(OC)cc23)cc1OC
inactive: [4] 104 % of control | [5] 109 % of control

C1=C(c2ccccc2)CS1
inactive: [6] 102 % of control

Cc1c(N=Nc2cccc(Cl)c2Cl)c(-c2ccccc2)nn1C(N)=S
inactive: [7] 94 % of control | [8] 99 % of control | [9] 96 % of control

CCOC(=O)NNC1=C(CC(=O)c2ccccc2)C(=O)CC(C)(C)C1
inactive: [1] 101 % of control | [2] 102 % of control | [3] 109 % of control

CCC1CN2CCc3cc(OC)c(OC)cc3C2CC12CO2 (stereo not given)
inactive: dose: 12.5 mg/kg/injection, schedule: Q01DX009 (ip), vehicle: saline with Tween-80 114 % of control | dose: 25.0 mg/kg/injection, schedule: Q01DX009 (ip), vehicle: saline with Tween-80 108 % of control | dose: 50.0 mg/kg/injection, schedule: Q01DX009 (ip), vehicle: saline with Tween-80 96 % of control

COC(=O)CCSC(=O)NS(=O)(=O)c1ccc(C)cc1
inactive: [8] 104 % of control | [9] 102 % of control | dose: 200.0 mg/kg/injection, schedule: Q01DX005 (ip), vehicle: Klucel (hydroxypropylcellulose) (HPC) 104 % of control

CCN(CC)CCNc1c(C)cccc1Cl
inactive: [10] 100 % of control | [11] 100 % of control

CCOC(=O)C1=C(C(=O)c2ccccc2)C(c2ccc(Cl)cc2Cl)C(C(=O)c2ccccc2)=C(C(=O)OCC)N1
inactive: [10] 93 % of control | [11] 90 % of control

Cc1ccc(S(=O)(O)=S)cc1
inactive: [5] 101 % of control | [12] 107 % of control | dose: 100.0 mg/kg/injection, schedule: Q04DX002 (ip), vehicle: saline 105 % of control | [13] 115 % of control | dose: 200.0 mg/kg/injection, schedule: Q04DX002 (ip), vehicle: saline 101 % of control | dose: 400.0 mg/kg/injection, schedule: Q04DX002 (ip), vehicle: saline 102 % of control

C1N2CN3CN1CN(C2)C3 (tested in a mixture with another compound)
inactive: [5] 107 % of control | [12] 101 % of control | [13] 107 % of control

O=C1CSC(=S)N1c1cccc(F)c1
inactive: dose: 50.0 mg/kg/injection, schedule: Q01DX009 (ip), vehicle: suspension in saline 108 % of control | dose: 100.0 mg/kg/injection, schedule: Q01DX009 (ip), vehicle: suspension in saline 100 % of control | dose: 200.0 mg/kg/injection, schedule: Q01DX009 (ip), vehicle: suspension in saline 100 % of control

CCCCC/C(=N\Nc1ccc([N+](=O)[O-])cc1[N+](=O)[O-])c1ccccc1
inactive: dose: 50.0 mg/kg/injection, schedule: Q01DX001 (ip), vehicle: saline with Tween-80 105 % of control | [6] 95 % of control | dose: 200.0 mg/kg/injection, schedule: Q01DX001 (ip), vehicle: saline with Tween-80 95 % of control

O=C1CSC=NN1c1ccccc1
inactive: [10] 102 % of control | [11] 92 % of control | [14] 108 % of control

O=C1C=C(c2ccccc2)Sc2ccccc2N1
inactive: [1] 95 % of control | [2] 88 % of control | [3] 87 % of control | dose: 400.0 mg/kg/injection, schedule: Q01DX009 (ip), vehicle: Klucel (hydroxypropylcellulose) (HPC) 94 % of control

CC(=O)OCc1c(COC(C)=O)c(-c2ccccc2)n2c1CCC2
inactive: dose: 12.5 mg/kg/injection, schedule: Q01DX009 (ip), vehicle: Klucel (hydroxypropylcellulose) (HPC) 110 % of control | [1] 87 % of control

Cc1[nH]c2c(ccc3c2ccc2c(=O)c(C)c(C)[nH]c23)c(=O)c1C
inactive: [15] 95 % of control | [16] 96 % of control | [17] 95 % of control

CC1=NN(C(=O)c2cccnc2)C(=O)C1N=Nc1ccc(S(=O)(=O)Nc2nccs2)cc1 (stereo not given)
inactive: [18] 101 % of control | [19] 99 % of control | dose: 400.0 mg/kg/injection, schedule: Q04DX003 (ip), vehicle: saline with Tween-80 95 % of control

N=C(N)CCCCCCCCC(=N)N
inactive: dose: 0.78 mg/kg/injection, schedule: Q01DX009 (ip), vehicle: saline 98 % of control and 111 % of control and 118 % of control | dose: 1.5 mg/kg/injection, schedule: Q01DX009 (ip), vehicle: saline 116 % of control | dose: 1.56 mg/kg/injection, schedule: Q01DX009 (ip), vehicle: saline 112 % of control and 114 % of control | dose: 6.25 mg/kg/injection, schedule: Q01DX009 (ip), vehicle: saline 123 % of control | [4] 107 % of control and 116 % of control and 119 % of control

CCOC(=O)c1c(-c2ccccc2)nn(CC(N)=O)c1CO
inactive: [15] 100 % of control | [16] 105 % of control | [17] 103 % of control

C[N+](C)(C)CC(=O)NNC(=O)CCn1[nH]c(=O)c(Cl)c(Cl)c1=O
inactive: [10] 104 % of control | [11] 99 % of control | [14] 97 % of control

O=C1c2ccccc2C(=O)c2c(NCCCNCCO)ccc(NCCCNCCO)c21
inactive: dose: 3.75 mg/kg/injection, schedule: Q01DX005 (ip), vehicle: other 104 % of control | dose: 6.25 mg/kg/injection, schedule: Q01DX009 (ip), vehicle: water 101 % of control | dose: 7.5 mg/kg/injection, schedule: Q01DX005 (ip), vehicle: other 111 % of control | dose: 7.5 mg/kg/injection, schedule: Q01DX009 (ip), vehicle: water 110 % of control | dose: 12.5 mg/kg/injection, schedule: Q01DX009 (ip), vehicle: water 117 % of control | dose: 15.0 mg/kg/injection, schedule: Q01DX005 (ip), vehicle: other 119 % of control | dose: 15.0 mg/kg/injection, schedule: Q01DX009 (ip), vehicle: water 117 % of control | dose: 30.0 mg/kg/injection, schedule: Q01DX005 (ip), vehicle: other 120 % of control | dose: 100.0 mg/kg/injection, schedule: Q01DX009 (ip), vehicle: other 97 % of control | dose: 100.0 mg/kg/injection, schedule: Q01DX009 (ip), vehicle: water 99 % of control

O=C(N=c1sc2ccccc2s1)N=c1sc2ccccc2s1
inactive: dose: 30.0 mg/kg/injection, schedule: Q01DX005 (ip), vehicle: Klucel (hydroxypropylcellulose) (HPC) 99 % of control | dose: 60.0 mg/kg/injection, schedule: Q01DX005 (ip), vehicle: Klucel (hydroxypropylcellulose) (HPC) 86 % of control and 91 % of control | dose: 120.0 mg/kg/injection, schedule: Q01DX005 (ip), vehicle: Klucel (hydroxypropylcellulose) (HPC) 95 % of control

COc1ccc(C(C#N)C(=O)C(=O)Nc2ccc(Cl)cc2C)cc1OC (stereo not given)
inactive: [10] 100 % of control | [11] 100 % of control | [14] 105 % of control

[CH3][Sn]([CH3])([S]c1nc(O)cc(=O)[nH]1)[S]c1nc(O)cc(=O)[nH]1
inactive: dose: 12.5 mg/kg/injection, schedule: Q01DX005 (ip), vehicle: Klucel (hydroxypropylcellulose) (HPC) 105 % of control and 108 % of control | [7] 96 % of control | [8] 117 % of control and 88 % of control and 89 % of control

O/N=C\c1ccc(/C=N/O)cc1
inactive: dose: 50.0 mg/kg/injection, schedule: Q04DX003 (ip), vehicle: saline with Tween-80 100 % of control | [18] 100 % of control | [19] 95 % of control
